ChEMBL document CHEMBL4052779, “Isosorbide-based peptidomimetics as inhibitors of hepatitis C virus serine protease” (Bioorg Med Chem Lett, 2017)

Experiments:
[1] = Solubility of the compound in aqueous buffer; type: physicochemical
Hepacivirus hominis [2] = assay: Inhibition of recombinant HCV NS3/4A protease at 100 uM pre-incubated for 10 mins followed by 5-FAM/QXL520 substrate addition and measured after 60 mins by FRET analysis relative to control
[3] = Inhibition of recombinant HCV NS3/4A protease pre-incubated for 10 mins followed by 5-FAM/QXL520 substrate addition and measured after 60 mins by FRET analysis relative to control; set-up: species or system Hepacivirus hominis
Hepacivirus hominis [4] = assay: Inhibition of recombinant wild type HCV NS3/4A protease assessed as residual enzyme activity at 100 uM pre-incubated for 10 mins followed by 5-FAM/QXL520 substrate addition and measured after 60 mins by FRET analysis relative to control
[5] = test system: Hepatitis C virus serine protease, NS3/NS4A (Hepatitis C virus), D2K2A8+A3EZI9 [D168A]; assay: Inhibition of recombinant HCV NS3/4A protease D168A mutant assessed as residual enzyme activity at 100 uM pre-incubated for 10 mins followed by 5-FAM/QXL520 substrate addition and measured after 60 mins by FRET analysis relative to control; details: Hepacivirus hominis
Hepacivirus hominis [6] = assay: Inhibition of recombinant HCV NS3/4A protease V170A mutant assessed as residual enzyme activity at 100 uM pre-incubated for 10 mins followed by 5-FAM/QXL520 substrate addition and measured after 60 mins by FRET analysis relative to control

Row | Compound | solubility [1] | inhibition (Hepacivirus hominis [2]) | also measured
1 | C[C@@H](O)[C@H](NC(=O)OC(C)(C)C)C(=O)N[C@H]1CO[C@H]2[C@@H]1OC[C@@H]2OCc1ccccc1 | Insoluble |  | 
2 | O=C(N[C@H]1CO[C@H]2[C@@H]1OC[C@@H]2OCc1ccccc1)/C(=C/c1ccco1)NC(=O)c1ccccc1 | Soluble | 81.8% | IC50 [3]: 36 µM; Activity (Hepacivirus hominis [4]): 18.2%; Activity [5]: 36.7%; Activity (Hepacivirus hominis [6]): 6.7%
3 | O=C(N[C@H]1CO[C@H]2[C@@H]1OC[C@@H]2OCc1ccccc1)/C(=C/c1cc2ccccc2s1)NC(=O)c1ccccc1 | Soluble | 30.3% | 
4 | CC(C)(C)OC(=O)N1CCC[C@H]1C(=O)N[C@H]1CO[C@H]2[C@@H]1OC[C@@H]2OCc1ccccc1 | Insoluble |  | 
5 | COc1ccc(CO[C@H]2CO[C@H]3[C@@H]2OC[C@@H]3NC(=O)/C(=C/c2cccs2)NC(=O)c2ccccc2)cc1 | Insoluble |  | 
6 | O=C(N[C@@H]1CO[C@H]2[C@@H]1OC[C@H]2OCc1ccccc1)/C(=C/c1cccs1)NC(=O)c1ccccc1 | Insoluble | 45% | 
7 | CC(C)(C)OC(=O)N[C@@H](CCCN/C(=N\C(=O)OCc1ccccc1)NC(=O)OCc1ccccc1)C(=O)N[C@H]1CO[C@H]2[C@@H]1OC[C@@H]2OCc1ccccc1 | Insoluble |  | 
8 | CC(C)(C)OC(=O)N[C@@H](Cc1c[nH]c2ccccc12)C(=O)N[C@H]1CO[C@H]2[C@@H]1OC[C@@H]2OCc1ccccc1 | Insoluble |  | 
